According to patent US9156796B2, “Benzoimidazole-carboxylic acid amide derivatives as APJ receptor modulators” (SANOFI, priority 2013, dated 2015):

Each molecule was assayed against T1, human apelin receptor (Homo sapiens, UniProt P35414) (assay: Determination of agonism on the human apelin receptor by a calcium fluorescence assay (FLIPR)). Conditions: EC50 (APJ agonism), HEK293 cells stably transfected with human apelin receptor and Giaq protein, Fluo-4 calcium fluorescence.
T1 construct: expressed in transfected cells
T1 sequence (P35414 1-380): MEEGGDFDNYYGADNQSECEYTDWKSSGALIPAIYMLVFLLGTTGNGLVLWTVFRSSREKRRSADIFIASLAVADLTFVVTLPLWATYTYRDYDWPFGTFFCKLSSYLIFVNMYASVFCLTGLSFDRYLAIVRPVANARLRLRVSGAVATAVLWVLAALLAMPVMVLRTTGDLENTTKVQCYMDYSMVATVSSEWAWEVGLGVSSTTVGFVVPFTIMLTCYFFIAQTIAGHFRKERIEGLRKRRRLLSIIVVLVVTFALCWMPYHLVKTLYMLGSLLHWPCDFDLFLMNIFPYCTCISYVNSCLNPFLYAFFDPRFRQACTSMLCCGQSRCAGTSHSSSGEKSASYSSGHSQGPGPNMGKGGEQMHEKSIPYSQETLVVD
Type: cell-based
How it was run: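 Agonist EC50s come from peak intracellular calcium transients recorded by FLIPR Tetra, scaled to the 1 μM apelin-13 maximum per plate. Test system: HEK293 stably transfected with human apelin receptor plus Giaq, Fluo-4-loaded (4 μM, 1 h, 37 °C, pH 7.4 buffer with probenecid); ≥7 concentrations, triplicates.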

Row | SMILES | EC50
1 | CCC(CC)n1c(CC2CCCC2)nc2cc(C(=O)N[C@H](CO)CCSC)ccc21 [Example 178, 2-Cyclopentylmethyl-1-(1-ethyl-propyl)-1H-benzoimidazole-5-carboxylic acid ((S)-1-hydroxymethyl-3-methylsulfanyl-propyl)-amide] | 17.4 µM
2 | CCCCC(CO)NC(=O)c1ccc2c(c1)nc(CC1CCCC1)n2C(CC)CC (stereo not drawn) [Example 182, 2-Cyclopentylmethyl-1-(1-ethyl-propyl)-1H-benzoimidazole-5-carboxylic acid (1-hydroxymethyl-pentyl)-amide] | 11 µM
3 | CCCC[C@H](CO)NC(=O)c1ccc2c(c1)nc(CC1CCCC1)n2C(CC)CC [Example 183, 2-Cyclopentylmethyl-1-(1-ethyl-propyl)-1H-benzoimidazole-5-carboxylic acid ((R)-1-hydroxymethyl-pentyl)-amide] | 26.3 µM
4 | CCCC[C@@H](CO)NC(=O)c1ccc2c(c1)nc(CC1CCCC1)n2C(CC)CC [Example 184, 2-Cyclopentylmethyl-1-(1-ethyl-propyl)-1H-benzoimidazole-5-carboxylic acid ((S)-1-hydroxymethyl-pentyl)-amide] | 2.9 µM
5 | CCC(CC)n1c(Cc2cccs2)nc2cc(C(=O)NC(CO)C(C)C)ccc21 (stereo not drawn) [Example 189, 1-(1-Ethyl-propyl)-2-thiophen-2-ylmethyl-1H-benzoimidazole-5-carboxylic acid (1-hydroxymethyl-2-methyl-propyl)-amide] | 12.2 µM
6 | CCC(CC)n1c(Cc2cccs2)nc2cc(C(=O)N[C@H](CO)C(C)C)ccc21 [Example 190, 1-(1-Ethyl-propyl)-2-thiophen-2-ylmethyl-1H-benzoimidazole-5-carboxylic acid ((S)-1-hydroxymethyl-2-methyl-propyl)-amide] | 6.28 µM

Same assay, conditions: HEK293 cells stably transfected with human apelin receptor and Giaq protein, Fluo-4 calcium fluorescence, read-out: EC50 (APJ agonism)

Row | EC50 | SMILES
7 | 4.53 µM | CC(C)C[C@H](NC(=O)c1ccc2c(c1)nc(Cc1cccs1)n2C1CCCCC1)C(N)=O [Example 168, 1-Cyclohexyl-2-thiophen-2-ylmethyl-1H-benzoimidazole-5-carboxylic acid ((S)-1-carbamoyl-3-methyl-butyl)-amide]
8 | 10.1 µM | CCC(CC)n1c(Cc2cccs2)nc2cc(C(=O)NC(C(N)=O)c3ccccc3)ccc21 (stereo not drawn) [Example 170, 1-(1-Ethyl-propyl)-2-thiophen-2-ylmethyl-1H-benzoimidazole-5-carboxylic acid (carbamoyl-phenyl-methyl)-amide]
9 | 0.748 µM | CCC(CC)n1c(Cc2cccs2)nc2cc(C(=O)NC(CC(C)C)C(N)=O)ccc21 (stereo not drawn) [Example 171, 1-(1-Ethyl-propyl)-2-thiophen-2-ylmethyl-1H-benzoimidazole-5-carboxylic acid (1-carbamoyl-3-methyl-butyl)-amide]
10 | 4.89 µM | CCC(CC)n1c(Cc2cscn2)nc2cc(C(=O)N[C@@H](CC(C)C)C(N)=O)ccc21 [Example 172, 1-(1-Ethyl-propyl)-2-thiazol-4-ylmethyl-1H-benzoimidazole-5-carboxylic acid ((S)-1-carbamoyl-3-methyl-butyl)-amide]
11 | 6.7 µM | CCC(CC)n1c(Cc2cccs2)nc2cc(C(=O)N[C@@H](CC3CCCCC3)C(N)=O)ccc21 [Example 173, 1-(1-Ethyl-propyl)-2-thiophen-2-ylmethyl-1H-benzoimidazole-5-carboxylic acid ((S)-1-carbamoyl-2-cyclohexyl-ethyl)-amide]
12 | 0.301 µM | CCC(CC)n1c(Cc2cccs2)nc2cc(C(=O)NC(CC(N)=O)CC(C)C)ccc21 (stereo not drawn) [Example 174, 1-(1-Ethyl-propyl)-2-thiophen-2-ylmethyl-1H-benzoimidazole-5-carboxylic acid (1-carbamoylmethyl-3-methyl-butyl)-amide]
13 | 0.501 µM | CCC(CC)n1c(CC2CCCC2)nc2cc(C(=O)N[C@H](CO)CC(C)C)ccc21 [Example 175, 2-Cyclopentylmethyl-1-(1-ethyl-propyl)-1H-benzoimidazole-5-carboxylic acid ((S)-1-hydroxymethyl-3-methyl-butyl)-amide]
14 | 8.91 µM | CCC(CC)n1c(CC2CCCC2)nc2cc(C(=O)N[C@@H](CO)CC(C)C)ccc21 [Example 176, 2-Cyclopentylmethyl-1-(1-ethyl-propyl)-1H-benzoimidazole-5-carboxylic acid ((R)-1-hydroxymethyl-3-methyl-butyl)-amide]
15 | 2.42 µM | CCC(CC)n1c(Cc2cccs2)nc2cc(C(=O)N[C@H](CO)CC3CCCCC3)ccc21 [Example 177, 1-(1-Ethyl-propyl)-2-thiophen-2-ylmethyl-1H-benzoimidazole-5-carboxylic acid ((S)-1-cyclohexylmethyl-2-hydroxy-ethyl)-amide]
16 | 25.2 µM | CCC(CC)n1c(CC2CCCC2)nc2cc(C(=O)NC3(CO)CCCC3)ccc21 [Example 179, 2-Cyclopentylmethyl-1-(1-ethyl-propyl)-1H-benzoimidazole-5-carboxylic acid (1-hydroxymethyl-cyclopentyl)-amide]
17 | 6.17 µM | CCC(CC)n1c(CC2CCCC2)nc2cc(C(=O)N[C@H](CO)[C@@H](C)CC)ccc21 [Example 180, 2-Cyclopentylmethyl-1-(1-ethyl-propyl)-1H-benzoimidazole-5-carboxylic acid ((1S,2S)-1-hydroxymethyl-2-methyl-butyl)-amide]
18 | 6.95 µM | CCCC(CO)NC(=O)c1ccc2c(c1)nc(CC1CCCC1)n2C(CC)CC (stereo not drawn) [Example 181, 2-Cyclopentylmethyl-1-(1-ethyl-propyl)-1H-benzoimidazole-5-carboxylic acid (1-hydroxymethyl-butyl)-amide]
19 | 14.1 µM | CCC[C@H](CO)NC(=O)c1ccc2c(c1)nc(CC1CCCC1)n2C(CC)CC [Example 185, 2-Cyclopentylmethyl-1-(1-ethyl-propyl)-1H-benzoimidazole-5-carboxylic acid ((R)-1-hydroxymethyl-butyl)-amide]
20 | 4.67 µM | CCC[C@@H](CO)NC(=O)c1ccc2c(c1)nc(CC1CCCC1)n2C(CC)CC [Example 186, 2-Cyclopentylmethyl-1-(1-ethyl-propyl)-1H-benzoimidazole-5-carboxylic acid ((S)-1-hydroxymethyl-butyl)-amide]
21 | 29 µM | CCC(CC)n1c(CC2CCCC2)nc2cc(C(=O)N[C@H](CO)C(C)C)ccc21 [Example 187, 2-Cyclopentylmethyl-1-(1-ethyl-propyl)-1H-benzoimidazole-5-carboxylic acid ((S)-1-hydroxymethyl-2-methyl-propyl)-amide]
22 | 4.52 µM | CCC(CC)n1c(Cc2cccs2)nc2cc(C(=O)N[C@H](CO)CCSC)ccc21 [Example 188, 1-(1-Ethyl-propyl)-2-thiophen-2-ylmethyl-1H-benzoimidazole-5-carboxylic acid ((S)-1-hydroxymethyl-3-methylsulfanyl-propyl)-amide]
23 | 6.29 µM | CCC(CC)n1c(Cc2cccs2)nc2cc(C(=O)N[C@@H](CO)CC(C)C)ccc21 [Example 191, 1-(1-Ethyl-propyl)-2-thiophen-2-ylmethyl-1H-benzoimidazole-5-carboxylic acid ((R)-1-hydroxymethyl-3-methyl-butyl)-amide]

Row | SMILES | EC50
24 | CCC(CC)n1c(CC2CCCC2)nc2cc(C(=O)NC(CC(C)C)C(N)=O)ccc21 (stereo not drawn) [Example 169, 2-Cyclopentylmethyl-1-(1-ethyl-propyl)-1H-benzoimidazole-5-carboxylic acid (1-carbamoyl-3-methyl-butyl)-amide] | 6.65 µM
